Measured values taken from EP0680964B1, “PYRROLO [3,2-e]INDOLE DERIVATIVES, PROCESS FOR THE PREPARATION THEREOF AND THEIR USE” (UNIVERSIDAD DE SANTIAGO DE COMPOSTELA, priority 1993, dated 1995).
Converted amounts (≈) assume the structure as drawn.

Tests used:
[1] = tested on: P388 leukemic tumor model; assay: P388 antitumoral model in vivo (survival time, i.p. treatment); design: species or system mice; conditions: for %C/T: average survival of tested group/average survival of controls
Experimental: Normally, 1x10^6 cells in ascitic fluid was implanted i.p. in CD2F1 mice. Treatment with the agent tested i.p. began one day after the tumor had been implanted and it is continued daily up to a total of 5 injections for synthetic products and of 9 injections for raw natural products. The results are expressed as percentage of the control survival time.
CDFl mice weighing 18-22 gr (+/- 3 gr) were implanted on day 0 of the test period o.1 ml. of a dilution of 1.0x10^7 tumor cells coming from DBA/2N mice used for the propagation of the tumor.
On day 1 of the test period the animals were grouped at random in groups of six animals.Each group is weighed and the average weight is written down. Each compound to be tested in diluted in 4 levels of dosis for each multidose test as of the determination of the highest nontoxic dose (v.g. 400 mg/kg; 100 mg/kg; 10 mg/kg.)
Administration of the test compounds is started on day 1 using volumns of 1/2 drug injected i.p. Injections are given on days 1 to 9 of the test period, unless it is indicated to the contrary. The animals are weighed on day 5, which is the one which in this system is considered the day of toxicity. Toxicity in this test system is defined as: • A. 34 % deaths up to day 5 - acute toxicity • B. C/T<85% - chronic toxicity • C. A negative average of the weight change of the animals> 4 g up to day 5 - chronic toxicity
The data obtained upon testing the compounds in vivo in comparison with the P388 leukemic tumor model in mice are shown in the following table: […]

[2] = mice, therapeutic doses; cited from earlier work
P388 model = conditions: cited from earlier work
HT-29 = assay: In vitro test, IC50 on HT-29; type: cell-based; conditions: Homo sapiens; HT-29, in vitro
Description: (§1) On the other hand, the results of the tests in vitro carried out on compounds (IIIa) and (IIIb) were the following: […]

P-388 = assay: In vitro test, IC50 on P-388; type: cell-based; conditions: Mus musculus, P388; P-388, in vitro
Description: as §1

A-549 = assay: In vitro test, IC50 on A-549; type: cell-based; conditions: Homo sapiens, A549; A-549, in vitro
Description: as §1

MEL-28 = assay: In vitro test, IC50 on MEL-28; type: cell-based; conditions: Homo sapiens, SK-MEL-28; MEL-28, in vitro
Description: as §1

COC(=O)c1cc2c(n1C)C(=O)C=C1N(C(=O)c3cc4cc(OC)c(OC)c(OC)c4[nH]3)CC3CC123 (centres unmarked) [(VI), methyl 2-(5,6,7-trimethoxy-1H-indole-2-carbonyl)-5-methyl-4-oxo-1,2,4,5,8a-hexahydrocyclopropa[c]pyrrolo[3,2-e]indole-7-carboxylate]
%C/T ([1]; inject. dose 0.500 mg/kg): 210.9%
Significant activity (class of %C/T) ([1]; inject. dose 0.500 mg/kg): ** (Significant activity (strong): C/T > =175%)

Cc1c[nH]c2c1[C@@]13C[C@@H]1CN(C(=O)c1cc4cc(NC(=O)c5cc6ccccc6o5)ccc4[nH]1)C3=CC2=O [Adocelesine]
delayed lethality [2]: without provoking delayed lethality

O=C(Nc1ccc2[nH]c(C(=O)N3CC4CC45C3=CC(=O)c3ccccc35)cc2c1)c1cc2ccccc2[nH]1 (centres unmarked) [CBI-Ind2]
results in the P388 model in vivo (P388 model): very good results

COc1c(O)c2c(c3cc(C(=O)N4CCc5c4c(O)c(OC)c4[nH]c(C(=O)N6CC7CC78C6=CC(=O)c6[nH]cc(C)c68)cc54)[nH]c13)CCN2C(N)=O (centres unmarked) [CC-1065]
delayed lethality [2]: producing delayed deaths in mice at therapeutic doses

COC(=O)c1cn(C)c2c(O)cc3c(c12)C(CCl)CN3C(=O)c1cc2cc(NC(=O)c3cc4ccccc4o3)ccc2[nH]1 (centres unmarked) [Compound (III), methyl 6-{5-[(benzofuran-2-ylcarbonyl)-amino]1H-indole-2-carbonyl}-8-chloromethyl-4-hydroxy-3-methyl-3,6,7,8,tetrahydropyrrolo[3,2-e]indole-1-carboxylate]
%C/T ([1]; inject. dose 0.500 mg/kg): >391.3%

COC(=O)c1cn(C)c2c(O)cc3c(c12)C(CCl)CN3C(=O)c1cc2cc(OC)c(OC)c(OC)c2[nH]1 (centres unmarked) [Compound (V), methyl 6-(5,6,7-trimethoxy-1H-indole-2-carbonyl)-8-chloromethyl-4-hydroxy-3-methyl-3,6,7,8-tetrahydropyrrololo[3,2-e]indole-1-carboxylate]
%C/T ([1]; inject. dose 0.050 mg/kg): 133.9%
Significant activity (class of %C/T) ([1]; inject. dose 0.050 mg/kg): ** (Significant activity (strong): C/T > =175%)

COC(=O)c1cn(C)c2c(OC(C)=O)cc3c(c12)C(CCl)CN3C(=O)c1cc2cc(NC(=O)c3cc4ccccc4o3)ccc2[nH]1 (centres unmarked) [IIIa, methyl 4-acetoxy-6-{5-[(benzofuran-2-yl-carbonyl)-amino]1H-indole-2-carbonyl}-8-chloromethyl-3-methyl-3,6,7,8-tetrahydropyrrolo[3,2-e]indole-1-carboxylate]
IC50 (HT-29): 0.25 ng/mL (≈ 0.391 nM)
IC50 (P-388): 0.01 ng/mL (≈ 0.0156 nM)
IC50 (A-549): 0.05 ng/mL (≈ 0.0782 nM)
IC50 (MEL-28): 0.25 ng/mL (≈ 0.391 nM)

methyl 2-[5-[(benzofuran-2-ylcarbonyl) amino]-1H-indol-2-carbonyl]-5-methyl-4-oxo,1,2,4,5,8,8,a-hexahydrocyclopropa[c]pyrrolo[3,2-e]indole-7-carboxylate [(IV)]
%C/T ([1]; inject. dose 0.300 mg/kg): 251.1%
Significant activity (class of %C/T) ([1]; inject. dose 0.300 mg/kg): ** (Significant activity (strong): C/T > =175%)
